# Legend:
# [1] = tested on: FR-positive KB cells; test: Internalization studies in FR-positive KB cells; assay type: cell-based, human; conditions: 5 nM, 37 °C, 1 h
# Protocol: (§1) Two different temperatures (4 °C for receptor binding, 37 °C for receptor binding and internalization) and two different concentrations were assessed. […] Both radiofolates show a concentration as well as temperature depended increase of activity in the FR positive cells. […] This effect is not fully understood, but we presume the high lipophilicity in combination with the increased concentration being responsible for this high non-specific binding. […] Thus, about 90% of ^18F-DBCO-folate remained in solution, which is ideal for such a radiotracer assay set-up (see supporting information for pie chart of activity distribution, Figure S6). For ^18F-Ala-folate the overall receptor-bound and internalized fractions are similar to ^18F-DBCO-folate (see supporting information for pie chart of activity distribution, Figure S7).
# As folate-receptor positive control, KB cells (derived from human cervical carcinoma; obtained from German Collection of Microorganisms and Cell Cultures), and OC316 cells (derived from human ovarian adenocarcinoma) as negative control were used. For FACS analysis, data of both cell lines see supporting information Figure S5. The cells were cultured in folate deficient RPMI 1640 medium containing 10% FCS, 1% penicillin-streptomycin and HEPES buffer (10 mM, 5 mL) grown at 37 °C in a humidified atmosphere containing 5% CO2. […] To determine the internalized fraction of both new ^18F-folate derivatives, different concentrations (1 and 5 nM) of the labeled agents were incubated with one million KB or OC316 cells at 4 °C and 37 °C. […] After 1h, the supernatant was removed, cells washed with PBS and with an acetate buffer (pH 3).
# [2] = tested on: KB tumor-bearing mice; test: µPET imaging in KB tumor-bearing mice; assay type: in vivo, mouse
# Source text: (§2) All animal experiments were approved by the local ethical committee (permission no. 23177-07/G15-1-033). Balb/c and balb/c nude (Balb/c AnNRj-Foxn1nu) mice were kept on a folate-deficient rodent diet to reduce their blood level of folate to one found in humans. After 7 days of acclimatization, human KB tumor cells (2.5 x 10^6 cells in PBS) were inoculated in the right shoulder of each balb/c nude mouse. All in vivo treatments and imaging experiments were done under isoflurane anesthesia. Eleven or twelve days after inoculation, animals were intravenously injected with ^18F-DBCO-Folate and ^18F-Ala-Folate (5–8 MBq, 100–200 µL) via a lateral tail vein. […] PET/MRI-studies were performed on a nanoScan PET/MRI (Mediso, Budapest, Hungary). First MRI scans (Material Map for co-registration of the PET scan; 3D; GRE-EXT, FOV; slice thickness: 0.6 mm; TE: 2 ms; TR: 15 ms; flip angle: 25 deg) were acquired and then either a dynamic scan over 60 min starting with injection of the radiotracer or a static scan for 10 min after 50 min p.i. were performed. All mice, which underwent ex vivo biodistribution, were scanned first. Afterwards co-registered PET/MR images were analyzed via PMOD (version 3.6) and Inveon Research Workplace (version 4.2). For ex vivo biodistribution studies mice were euthanized 60 min p.i. and organs of interest were dissected, weighed, and measured in a γ-counter (PerkinElmer 2470 Wizard2, Perkin Elmer, Rodgau, Germany). The incorporated radioactivity was expressed as percentage of injected dose per gram of tissue (% ID/g).
# [3] = Stability in human serum albumin at 37 °C; conditions: 2 h
# Protocol: The in vitro stability was assessed in human serum albumin at 37 °C.
# For testing the stability, 200 µL of ^18F-DBCO-folate or ^18F-Ala-folate (ca. 4 MBq) were incubated at 37 °C in 500 µL human serum albumin. After predetermined time points plasma proteins were precipitated with 600 µL ice-cold acetonitrile followed by centrifugation (10,000 rpm, 10 min). An aliquot of the supernatant was injected into an analytical radio-HPLC.
# [4] = parameters: method as in doi:10.1039/C5MD00508F; conditions: pH 7.4, shake-flask; cited from earlier work
# [5] = tested on: KB-tumor bearing mice; test: Ex vivo biodistribution in KB-tumor bearing mice; conditions: 60 min p.i.; for uptake Appendix / uptake Blood / uptake Heart / uptake Inguinal lymph nodes / uptake Intestines (empty) / uptake Left kidney / uptake Liver / uptake Lung / uptake Muscle / uptake Pancreas / uptake Right kidney / uptake Spleen / uptake Stomach (empty) / uptake Tumor: KB xenograft mice
# Source text: as §2
# [6] = tested on: FR-negative OC316 cells; test: Internalization studies in FR-negative OC316 cells; assay type: cell-based, human; conditions: blocked KB cells and FR-negative OC316 cells
# Protocol: as §1
# As folate-receptor positive control, KB cells (derived from human cervical carcinoma; obtained from German Collection of Microorganisms and Cell Cultures), and OC316 cells (derived from human ovarian adenocarcinoma) as negative control were used. For FACS analysis, data of both cell lines see supporting information Figure S5. The cells were cultured in folate deficient RPMI 1640 medium containing 10% FCS, 1% penicillin-streptomycin and HEPES buffer (10 mM, 5 mL) grown at 37 °C in a humidified atmosphere containing 5% CO2. […]
# [7] = tested on: healthy balb/c mice; test: Ex vivo biodistribution in healthy balb/c mice; conditions: healthy balb/c mice, 60 min p.i.
# Source text: as §2
# [8] = blockade with 100 µg native folic acid
# [9] = blocked with 100 µg native folic acid
structure (smiles),measurement,setting,value
Nc1nc2ncc(CNc3ccc(C(=O)NC(CCC(=O)NCCOCCOCCOCCn4nnc5c4-c4ccccc4CN(C(=O)CCNC(=O)CCOCCOCCOCC[18F])c4ccccc4-5)C(=O)O)cc3)nc2c(=O)[nH]1 (stereo not drawn) [^18F-DBCO-folate],fraction of tracer internalized,[1],about 3%
same,fraction of tracer receptor bound,[1],about 7%
same,fraction of tracer remained in solution,[1],about 90%
same,uptake in the bones (in vivo defluorination),[2]; PET,Negligible uptake
same,visualization of KB tumors in maximum intensity projection (MIP) PET images,[2]; static scan 50-60 min p.i.,impeded
same,still intact after incubation,[3],> 90%
same,logD7.4 Value,[4],0.6 ± 0.07 [18]
same,tumor/blood ratio,[5],5.61
same,tumor/muscle ratio,[5],6.86
same,uptake Appendix,[5],0.13 ± 0.02 %ID/g tissue
same,uptake Blood,[5],0.09 ± 0.04 %ID/g tissue
same,uptake Heart,[5],0.08 ± 0.02 %ID/g tissue
same,uptake Inguinal lymph nodes,[5],0.48 ± 0.14 %ID/g tissue
same,uptake Intestines (empty),[5],0.42 ± 0.52 %ID/g tissue
same,uptake Left kidney,[5],4.83 ± 0.90 %ID/g tissue
same,uptake Liver,[5],0.18 ± 0.07 %ID/g tissue
same,uptake Lung,[5],0.17 ±0.06 %ID/g tissue
same,uptake Muscle,[5],0.07 ± 0.01 %ID/g tissue
same,uptake Pancreas,[5],0.07 ±0.01 %ID/g tissue
same,uptake Right kidney,[5],4.76 ± 0.89 %ID/g tissue
same,uptake Spleen,[5],0.06 ± 0.02 %ID/g tissue
same,uptake Stomach (empty),[5],0.82 ± 0.64 %ID/g tissue
same,uptake Tumor,[5],0.48 ± 0.14 %ID/g tissue
same,uptake Appendix,[5]; [8],0.07 ± 0.01 %ID/g tissue
same,uptake Blood,[5]; [8],0.06 ± 0.04 %ID/g tissue
same,uptake Heart,[5]; [8],0.04 ± 0.02 %ID/g tissue
same,uptake Inguinal lymph nodes,[5]; [8],0.04 ± 0.02 %ID/g tissue
same,uptake Intestines (empty),[5]; [8],0.56 ± 0.81 %ID/g tissue
same,uptake Left kidney,[5]; [8],0.30 ± 0.04 %ID/g tissue
same,uptake Liver,[5]; [8],0.14 ± 0.06 %ID/g tissue
same,uptake Lung,[5]; [8],0.13 ± 0.05 %ID/g tissue
same,uptake Muscle,[5]; [8],0.02 ± 0.01 %ID/g tissue
same,uptake Pancreas,[5]; [8],0.03 ± 0.02 %ID/g tissue
same,uptake Right kidney,[5]; [8],0.30 ± 0.02 %ID/g tissue
same,uptake Spleen,[5]; [8],0.05 ± 0.03 %ID/g tissue
same,uptake Stomach (empty),[5]; [8],0.22 ± 0.09 %ID/g tissue
same,uptake Tumor,[5]; [8],0.09 ± 0.04 %ID/g tissue
same,tumor/liver ratio,[5]; liver including gallbladder,2.58
same,reduction of activity in the tumor in the blocked group,[5]; preinjection of excess native folic acid,81%
same,non-specific binding,[6],distinct non-specific binding
same,uptake Blood,[7],0.08 ± 0.01 %ID/g tissue
same,uptake Heart,[7],0.09 ± 0.01 %ID/g tissue
same,uptake Inguinal lymph nodes,[7],0.18 ± 0.08 %ID/g tissue
same,uptake Intestines (empty),[7],0.87 ± 0.57 %ID/g tissue
same,uptake Left kidney,[7],3.90 ± 0.38 %ID/g tissue
same,uptake Liver,[7],0.24 ± 0.02 %ID/g tissue
same,uptake Lung,[7],0.35 ± 0.27 %ID/g tissue
same,uptake Muscle,[7],0.06 ± 0.01 %ID/g tissue
same,uptake Pancreas,[7],0.08 ± 0.01 %ID/g tissue
same,uptake Right kidney,[7],3.99 ± 0.37 %ID/g tissue
same,uptake Spleen,[7],0.07 ± 0.02 %ID/g tissue
same,uptake Blood,[7]; [9],0.12 ± 0.05 %ID/g tissue
same,uptake Heart,[7]; [9],0.11 ± 0.06 %ID/g tissue
same,uptake Inguinal lymph nodes,[7]; [9],0.10 ± 0.08 %ID/g tissue
same,uptake Intestines (empty),[7]; [9],0.33 ± 0.22 %ID/g tissue
same,uptake Left kidney,[7]; [9],0.40 ± 0.07 %ID/g tissue
same,uptake Liver,[7]; [9],0.33 ± 0.08 %ID/g tissue
same,uptake Lung,[7]; [9],0.36 ± 0.11 %ID/g tissue
same,uptake Muscle,[7]; [9],0.07 ± 0.05 %ID/g tissue
same,uptake Pancreas,[7]; [9],0.09 ± 0.05 %ID/g tissue
same,uptake Right kidney,[7]; [9],0.38 ± 0.07 %ID/g tissue
same,uptake Spleen,[7]; [9],0.11 ± 0.06 %ID/g tissue
O=C(CCOCCOCCOCC[18F])NCCC(=O)N1Cc2ccccc2C#Cc2ccccc21 [^18F-DBCO],logD7.4 Value,[4],1.2 ± 0.07 [18]
